Experimental data as given in patent US20150166505A1, “PYRIDINYL-SUBSTITUTED PYRAZOLYL CARBOXAMIDES” (GRÜNENTHAL GMBH, priority 2013, published 2015).
Converted amounts (≈) assume the structure as drawn. Like-named read-outs stand apart in the source and are kept apart here.

Assays:
[1] = Nephelometric Solubility Measurement; assay type: physicochemical; settings: aqueous buffer, kinetic from dmso stock; phosphate buffered saline pH 7.4, 37° C., incubation 2 minutes
Procedure: Nephelometric Solubility Measurement
BMG Labtech Nephelostar (S/N 504-0167), 37° C.; Gain: 100; Laser Beam Focus 1.5 mm; Laser intensity 80%; measurement time/well 0.1 s; positioning delay 0.1 s; data analysis: BMG Labtech MARS software
Measurements with BMG Labtech Nephelostar performed though addition of DMSO stock solutions of compound (2, 5, 10, 20, 30, 40, 50, 60, 80, 100 [μg/mL]) into phosphate buffered saline (pH 7.4, purchased from Invitrogen, catalogue number 10010-056); incubation time: 2 minutes [blank measurement contains DMSO (2.5 μL) and buffered saline (47.5 μL)]; Detection of insoluble particles in liquid samples was performed by measuring forward scattered light.

[2] = target: T1, CRAC channel (endogenous SOC in HEK293 cells) (Homo sapiens, UniProt Q96D31); test: HEK Calcium Influx Assay (FLIPR); assay type: cell-based
T1 construct: endogenous in cells; host or cells: HEK293 (ECACC)
Method in brief: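 Endogenous SOC in HEK293 cells, Calcium-4 dye-loaded; stores depleted with 2 μM thapsigargin in Ca2+-free HBS (100 μM EGTA, pH 7.4) 10 min, then 3 mM CaCl2 added. Compound given after 15 min; signal averaged 9.5–10 min post-addition versus DMSO and non-TG controls. IC50 from 8-point 1:3.16 series starting 10 μM.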

[3] = test system: Interleukin-2 (IL-2) production/release in Jurkat T cell line; test: Jurkat IL-2 Production Assay; assay type: cell-based; settings: Homo sapiens; Jurkat T cells, PHA stimulation 22 hours
Method in brief: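 Jurkat E6-1 cells (5*10^5/well) preincubated 30 min with compound, then stimulated with 15 μg/ml PHA for 22 h at 37 °C. IC50 from 8-point 1:3.16 dilutions starting at 10 μM.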

[4] = thapsigargin store depletion, read-out: % inhib. [@ 10 μM] FLIPR

T1 sequence (Q96D31 whole entry): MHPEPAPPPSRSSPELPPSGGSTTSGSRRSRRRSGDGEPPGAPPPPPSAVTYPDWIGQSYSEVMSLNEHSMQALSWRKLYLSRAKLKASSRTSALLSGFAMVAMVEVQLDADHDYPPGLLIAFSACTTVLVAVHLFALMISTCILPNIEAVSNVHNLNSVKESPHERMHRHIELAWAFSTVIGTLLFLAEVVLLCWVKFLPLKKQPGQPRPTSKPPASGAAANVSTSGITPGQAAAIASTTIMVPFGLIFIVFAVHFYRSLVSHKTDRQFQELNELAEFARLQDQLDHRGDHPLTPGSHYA

SMILES	solubility at 2 min [1] [µM]	inhibition at 10 µM [2, 4] [%]	IC50 [3] [µM]	inhibition at 10 µM ([2]; numeric values of Table 2, read-out: inhib. [@ 10 μM] FLIPR) [%]
CCOc1cc(C)c(-c2ccc(NC(=O)c3c(F)cccc3F)cc2)cn1 [Comparative example #3, reference compound]	< 14	–	–	–
COc1ncc(-c2nn(C)c(=O)o2)cc1-c1cc(C(=O)Nc2c(F)cccc2F)nn1C [Example 74, N-(2,6-Difluoro-phenyl)-5-[2-methoxy-5-(4-methyl-5-oxo-4H-[1,3,4]oxadiazol-2-yl)-pyridin-3-yl]-1-methyl-1H-pyrazole-3-carboxylic acid amide]	131 (≈ 57.8 µg/mL)	< 50	1 to 5	–
COc1ncc(-c2nn(C)c(=O)o2)cc1-c1ccc(NC(=O)c2c(F)cccc2F)cc1 [Comparative example #5, reference compound]	< 11	–	–	–
Cc1c(-c2cc(C(=O)Nc3c(F)cccc3F)nn2C)cnc(C2CC2)c1F [Example 33, 5-(6-Cyclopropyl-5-fluoro-4-methyl-pyridin-3-yl)-N-(2,6-difluoro-phenyl)-1-methyl-1H-pyrazole-3-carboxylic acid amide]	–	> 70	1 to 5	–
CCOc1cc(C(F)(F)F)c(-c2cc(C(=O)Nc3c(F)cccc3F)nn2C)cn1 [Example 32, N-(2,6-Difluoro-phenyl)-5-[6-ethoxy-4-(trifluoromethyl)-pyridin-3-yl]-1-methyl-1H-pyrazole-3-carboxylic acid amide]	–	> 70	0.5 to 1	–
Cc1c(-c2cc(C(=O)Nc3c(F)cncc3F)nn2C)cnc(C2CC2)c1F [Example 34, 5-(6-Cyclopropyl-5-fluoro-4-methyl-pyridin-3-yl)-N-(3,5-difluoro-pyridin-4-yl)-1-methyl-1H-pyrazole-3-carboxylic acid amide]	–	> 70	1 to 5	–

Results, then the compound that gave them:

solubility at 2 min [1] [µM]	inhibition at 10 µM [2, 4] [%]	IC50 [3] [µM]	inhibition at 10 µM ([2]; numeric values of Table 2, read-out: inhib. [@ 10 μM] FLIPR) [%]	SMILES
38.8 (≈ 14.4 µg/mL)	–	–	–	COc1cc(OC)c(-c2ccc(NC(=O)c3c(F)cccc3F)cc2)cn1 [Comparative example #4, reference compound]
149 (≈ 55.6 µg/mL)	> 70	< 0.5	75	CCOc1cc(C)c(-c2cc(C(=O)Nc3c(F)cccc3F)nn2C)cn1 [Example 3, N-(2,6-Difluoro-phenyl)-5-(6-ethoxy-4-methyl-pyridin-3-yl)-1-methyl-1H-pyrazole-3-carboxylic acid amide]
> 267	> 70	< 0.5	–	COc1cc(OC)c(-c2cc(C(=O)Nc3c(F)cccc3F)nn2C)cn1 [Example 38, N-(2,6-Difluoro-phenyl)-5-(4,6-dimethoxy-pyridin-3-yl)-1-methyl-1H-pyrazole-3-carboxylic acid amide]
–	> 70	1 to 5	–	COc1cc(OC)c(-c2c(C)c(C(=O)Nc3c(F)cccc3F)nn2C)cn1 [Example 64, N-(2,6-Difluoro-phenyl)-5-(4,6-dimethoxy-pyridin-3-yl)-1,4-dimethyl-1H-pyrazole-3-carboxylic acid amide]
